Assays:
LOLRI [1] = assay: Post-emergence action against LOLRI; format: in vivo, Lolium rigidum; conditions: Lolium rigidum, 504 h, dosage 80 g/ha, visual assessment about 3 weeks after treatment vs untreated controls, read-out: Post-emergence action against LOLRI (herbicidal action in percent)
Method: Seeds of monocotyledonous and dicotyledonous weed and crop plants are laid out in sandy loam soil in wood-fiber pots, covered with soil and cultivated in a greenhouse under good growth conditions. 2 to 3 weeks after sowing, the test plants are treated at the one-leaf stage. The compounds of the invention, formulated in the form of wettable powders (WP) or as emulsion concentrates (EC), are then sprayed onto the green parts of the plants in the form of an aqueous suspension or emulsion at a water application rate equating to […], with addition of 0.2% wetting agent. After the test plants have been left to stand in the greenhouse under optimal growth conditions for about 3 weeks, the action of the preparations is assessed visually in comparison to untreated controls (herbicidal action in percent (%): 100% activity=the plants have died, 0% activity=like control plants). […] At the same time, inventive compounds leave Gramineae crops such as barley, wheat, rye, millet/Sorghum, corn or rice virtually undamaged when applied post-emergence, even at high active ingredient dosages. In addition, some substances are also harmless to dicotyledonous crops such as soya, cotton, oilseed rape, sugar beet or potatoes. Some of the compounds according to the invention have high selectivity and are therefore suitable for controlling unwanted vegetation in agricultural crops by the post-emergence method. The data of Tables B18 to B34 below illustrate, in an exemplary manner, the […] herbicidal action of the compounds according to the invention, the herbicidal activity being stated in percent.

VIOTR [2] = assay: Pre-emergence action against VIOTR; format: in vivo, Viola tricolor; conditions: Viola tricolor, 504 h; Dosage 320 g/ha, pre-emergence
Method in brief: (§1)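 Seeds sown in sandy loam in wood-fiber pots and covered with soil. Greenhouse growth; visual damage scored after 3 weeks versus untreated controls (100% = dead, 0% = like control).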

VERPE [3] = assay: Pre-emergence action against VERPE; format: in vivo, Veronica persica; conditions: Veronica persica, 504 h; Dosage 320 g/ha, pre-emergence
Method in brief: as §1

CYPES [4] = assay: Post-emergence action against CYPES; format: in vivo, Cyperus esculentus; conditions: Cyperus esculentus, 504 h; post-emergence, dosage 80 g/ha, visual assessment about 3 weeks after treatment vs untreated controls; read-out: Post-emergence action against CYPES (herbicidal action in percent)
Method in brief: (§2)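 Weeds grown in sandy loam in greenhouse, treated at one-leaf stage (2–3 weeks after sowing) with WP or EC formulations sprayed as aqueous suspension/emulsion at 600 to […] water with 0.2% wetting agent. Visual rating after about 3 weeks versus untreated controls, as % herbicidal action (100% = plants dead, 0% = like control).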

PHBPU = assay: Post-emergence action against PHBPU; format: in vivo, Pharbitis purpurea; conditions: Ipomoea purpurea, 504 h; post-emergence, dosage 80 g/ha
Method in brief: as §2

ECHCG [5] = assay: Post-emergence action against ECHCG; format: in vivo, Echinochloa crus-galli; conditions: Echinochloa crus-galli, 504 h; post-emergence, dosage 80 g/ha, visual assessment about 3 weeks after treatment vs untreated controls; read-out: Post-emergence action against ECHCG (herbicidal action in percent)
Method in brief: as §2

SETVI [6] = assay: Pre-emergence action against SETVI; format: in vivo, Setaria viridis; conditions: Setaria viridis, 504 h; pre-emergence, dosage 320 g/ha, scored visually after 3 weeks vs untreated controls; read-out: SETVI (Table B8, pre-emergence herbicidal activity)
Method in brief: as §1

ABUTH [7] = assay: Pre-emergence action against ABUTH; format: in vivo, Abutilon theophrasti; conditions: Abutilon theophrasti, 504 h; pre-emergence, dosage 320 g/ha, scored visually after 3 weeks vs untreated controls; read-out: Pre-emergence action against ABUTH (herbicidal activity)
Method in brief: as §1

AMARE [8] = assay: Pre-emergence action against AMARE; format: in vivo, Amaranthus retroflexus; conditions: Amaranthus retroflexus, 504 h; pre-emergence, dosage 320 g/ha, scored visually after 3 weeks vs untreated controls; read-out: Pre-emergence action against AMARE (herbicidal activity)
Method in brief: as §1

POLCO = assay: Pre-emergence action against POLCO; format: in vivo, Polygonum convolvulus; conditions: Fallopia convolvulus, 504 h; Dosage 320 g/ha, pre-emergence
Method in brief: as §1

ABUTH [9] = assay: Post-emergence action against ABUTH; format: in vivo, Abutilon theophrasti; conditions: Abutilon theophrasti, 504 h; post-emergence, dosage 80 g/ha, visual assessment about 3 weeks after treatment vs untreated controls; read-out: Post-emergence action against ABUTH (herbicidal action in percent)
Method in brief: as §2

LOLRI [10] = assay: Pre-emergence action against LOLRI; format: in vivo, Lolium rigidum; conditions: Lolium rigidum, 504 h, dosage 320 g/ha, scored visually after 3 weeks vs untreated controls, read-out: Pre-emergence action against LOLRI (herbicidal activity)
Method in brief: as §1

ALOMY = assay: Pre-emergence action against ALOMY; format: in vivo, Alopecurus myosuroides; conditions: Alopecurus myosuroides, 504 h; dosage 320 g/ha; pre-emergence; scored visually after 3 weeks vs untreated controls; 100% = plants have died, 0% = like control plants; read-out: Pre-emergence action against ALOMY (herbicidal activity in percent)
Method in brief: as §1

AVEFA = assay: Pre-emergence action against AVEFA; format: in vivo, Avena fatua; conditions: Avena fatua, 504 h, dosage 320 g/ha, scored visually after 3 weeks vs untreated controls, read-out: Pre-emergence action against AVEFA (herbicidal activity)
Method in brief: as §1

STEME [11] = assay: Post-emergence action against STEME; format: in vivo, Stellaria media; conditions: Stellaria media, 504 h; post-emergence, dosage 80 g/ha
Method in brief: as §2

MATIN [12] = assay: Pre-emergence action against MATIN; format: in vivo, Matricaria inodora; conditions: Tripleurospermum inodorum, 504 h; Dosage 320 g/ha, pre-emergence
Method in brief: as §1

VERPE [13] = assay: Post-emergence action against VERPE; format: in vivo, Veronica persica; conditions: Veronica persica, 504 h, dosage 80 g/ha
Method in brief: as §2

MATIN [14] = assay: Post-emergence action against MATIN; format: in vivo, Matricaria inodora; conditions: Tripleurospermum inodorum, 504 h; post-emergence, dosage 80 g/ha, visual assessment about 3 weeks after treatment vs untreated controls; read-out: Post-emergence action against MATIN (herbicidal action in percent)
Method in brief: as §2

CYPES [15] = assay: Pre-emergence action against CYPES; format: in vivo, Cyperus esculentus; conditions: Cyperus esculentus, 504 h; pre-emergence, dosage 320 g/ha, scored visually after 3 weeks vs untreated controls; read-out: Pre-emergence action against CYPES (herbicidal activity)
Method in brief: as §1

SETVI [16] = assay: Post-emergence action against SETVI; format: in vivo, Setaria viridis; conditions: Setaria viridis, 504 h; post-emergence, dosage 80 g/ha, visual assessment about 3 weeks after treatment vs untreated controls; read-out: Post-emergence action against SETVI (herbicidal action in percent)
Method in brief: as §2

AMARE [17] = assay: Post-emergence action against AMARE; format: in vivo, Amaranthus retroflexus; conditions: Amaranthus retroflexus, 504 h; post-emergence, dosage 80 g/ha, visual assessment about 3 weeks after treatment vs untreated controls; read-out: Post-emergence action against AMARE (herbicidal action in percent)
Method in brief: as §2

VIOTR [18] = assay: Post-emergence action against VIOTR; format: in vivo, Viola tricolor; conditions: Viola tricolor, 504 h; post-emergence, dosage 80 g/ha
Method in brief: as §2

ECHCG [19] = assay: Pre-emergence action against ECHCG; format: in vivo, Echinochloa crus-galli; conditions: Echinochloa crus-galli, 504 h; pre-emergence, dosage 320 g/ha, scored visually after 3 weeks vs untreated controls; read-out: Pre-emergence action against ECHCG (herbicidal activity)
Method in brief: as §1

STEME [20] = assay: Pre-emergence action against STEME; format: in vivo, Stellaria media; conditions: Stellaria media, 504 h; Dosage 320 g/ha, pre-emergence
Method in brief: as §1

CC(C)C(=O)c1c(C(F)(F)F)ccc(C(=O)Nc2nnnn2C)c1Cl [1-140]
pest or weed control at 80 g/ha (LOLRI [1]): 80%
pest or weed control at 320 g/ha (VIOTR [2]): 100%
pest or weed control at 320 g/ha (VERPE [3]): 100%
pest or weed control at 80 g/ha (CYPES [4]): 90%
pest or weed control at 80 g/ha (PHBPU): 90%
pest or weed control at 80 g/ha (ECHCG [5]): 100%
pest or weed control at 320 g/ha (SETVI [6]): 100%
pest or weed control at 320 g/ha (ABUTH [7]): 100%
pest or weed control at 320 g/ha (AMARE [8]): 100%
pest or weed control at 320 g/ha (POLCO): 80%
pest or weed control at 80 g/ha (ABUTH [9]): 100%
pest or weed control at 320 g/ha (LOLRI [10]): 100%
pest or weed control at 320 g/ha (ALOMY): 100%
pest or weed control at 320 g/ha (AVEFA): 80%
pest or weed control at 80 g/ha (STEME [11]): 100%
pest or weed control at 320 g/ha (MATIN [12]): 100%
pest or weed control at 80 g/ha (VERPE [13]): 80%
pest or weed control at 80 g/ha (MATIN [14]): 100%
pest or weed control at 320 g/ha (CYPES [15]): 90%
pest or weed control at 80 g/ha (SETVI [16]): 100%
pest or weed control at 80 g/ha (AMARE [17]): 90%
pest or weed control at 80 g/ha (VIOTR [18]): 100%
pest or weed control at 320 g/ha (ECHCG [19]): 100%
pest or weed control at 320 g/ha (STEME [20]): 100%

— patent US11051515B2, “3-acyl-benzamides and their use as herbicides” (Bayer Aktiengesellschaft, priority 2017, dated 2021)
